One compound from patent publication US20070264340A1, “Aromachemicals” (Flexitral, Inc., priority 2006, published 2007) can be followed below.

The series can be described thus: stability to acid. Format: physicochemical.

Regarding `CC(C)=CCCC1(C)CC1C=O` (racemic) [2-methyl-2-(4-methylpent-3-en-1-yl)cyclopropanecarbaldehyde], the stability to acid entry is “stable to acid”.
